Results taken from PMC9181938, “Fluorinated Analogues of Lepidilines A and C: Synthesis and Screening of Their Anticancer and Antiviral Activity” (Molecules, 2022).

Key:
Assay in all cases: Cytotoxicity MTT assay (0.1–1000 µM), CC50
Vero cells = assay type: cell-based, Cercopithecus aethiops; conditions: 48 h, read-out: CC50 Normal Cell Lines Vero
HeLa cells = assay type: cell-based, Human; conditions: MTT, 48 h, read-out: CC50 Cancer Cell Lines HeLa
MRC-5 cells = assay type: cell-based, Human; conditions: MRC-5, MTT, 48 h; read-out: CC50 Normal Cell Lines MRC-5
NCTC clone 929 cells = assay type: cell-based, Mus musculus; conditions: NCTC clone 929, MTT, 48 h; read-out: CC50 Normal Cell Lines NCTC Clone 929
LLC-MK2 cells = assay type: cell-based, Macaca mulatta; conditions: LLC-MK2, MTT, 48 h; read-out: CC50 Normal Cell Lines LLC-MK2
HepG2 cells = assay type: cell-based, Human; conditions: 48 h, read-out: CC50 Cancer Cell Lines HepG2
A549 cells = assay type: cell-based, Human; conditions: 48 h, read-out: CC50 Cancer Cell Lines A549

## Cc1c(C)[n+](Cc2cccc(F)c2)cn1Cc1ccccc1 [1e[PF6]] [1-Benzyl-3-(3-fluorobenzyl)-4,5-dimethylimidazolium hexafluorophosphate]
Vero cells
  CC50: 56.3 ± 3.21 µM
HeLa cells
  CC50: 80 ± 1 nM
MRC-5 cells
  CC50: 150 ± 4.17 µM
NCTC clone 929 cells
  CC50: 148 ± 11.5 µM
LLC-MK2 cells
  CC50: 150 ± 2.52 µM
HepG2 cells
  CC50: 317 ± 5.77 µM
A549 cells
  CC50: 38 ± 3.46 µM
